Assay results reported in US11883398B2, “Dipeptidylpeptidase 4 inhibition enhances lymphocyte trafficking, improving both naturally occurring tumor immunity and immunotherapy” (INSTITUT PASTEUR, priority 2015, dated 2024).

Columns and labels:
CXCR3-expressing T cells = assay: Model of trafficking into the peritoneal cavity; type: in vivo, mouse
Method: WT and Dpp4^−/− mice were intraperitoneally injected with PBS or 1 μg of mCXCL10, mCXCL9 or mCCL5 (all from Peprotech). At the indicated time points, mice were sacrificed and peritoneal cells were collected in 10 mL of PBS. For thioglycollate induced peritonitis mice were intraperitoneally injected with thioglycollate 3% weight/volume, 24 hours before collection of peritoneal cells.
Fluorochrome-conjugated anti-mouse CD3 (clone145-2C11), CD8 (clone 53-6.7), CD4 (clone RM4-5), NK1.1 (clone PK136), CD49b (clone DX5), CD25 (clone PC61), B220 (clone RA3-6B2), Ly6G (clone 1A8), Ly6C (clone AL-21), CD11 b (clone M1/70) Siglec-F (clone E50-2440), MHCII IA-IE (clone M5/114.15.2), CD45.2 (clones 56-0454-82 and 109830), Thy-1.1 (clone HIS51), Thy-1.2 (clone 53-2.1), DPP4 (clone H194-112) and CXCR3 (clone CXCR3-173) were from eBiosciences and BD Biosciences. Fluorochrome conjugated anti-F4/80 (clone CI:A3-1) was from AbDserotec. For exclusion of dead cells, Live/Dead fixable Aqua reagent (Invitrogen) was used. For all staining protocols, cell suspensions were incubated with mouse CD16/CD32 Fc Blocking antibodies (BD Biosciences) prior to antibody. For analysis of peritoneal cavity infiltrates, cells were washed and incubated with a cocktail of fluorochrome-conjugated antibodies. For analysis of tumor infiltrates, B16F10 tumors were collected at the indicated time points and digested in PBS supplemented with 2.7 mg/ml of Collagenase (Roche) and 23U/ml of Deoxyribonuclease I (Invitrogen) for 30 min, 37° C. Digestion was terminated by adding PBS supplemented with 2% FCS and 5 mM EDTA (Gibco). Tumor cell suspensions were obtained after filtration over a 70 μm cell strainer. For determination of cell numbers, the […] COUNTING BEADS reagent (Invitrogen) was used. Flow cytometry was performed using a BD LSRFORTESSA or a BD CANTO cytometer, with DIVA software. Computer analysis was done with FLOWJO (Treestar).

CT26 tumors = assay: Flow cytometry of leukocytes infiltrating CT26 tumors; type: in vivo, mouse; conditions: day 11, sitagliptin vs control
B16F10 melanoma = assay: Subcutaneous B16F10 melanoma tumor growth in vivo; design: species or system mouse
Method: Mice used were 7-12 weeks old. […] B16F10 and […] (Ovalbumin-expressing B16F10 cells, gift from C. Reis e Sousa) tumor cells were cultured in DMEM (Gibco) supplemented with 10% FCS (PAA), 0.1 mM non-essential amino acids, 1 mM sodium pyruvate, 10 mM Hepes, 70 μM beta-mercaptoethanol and 23 μg/ml gentamycin (all from Gibco). CT26 colon carcinoma cells were cultured in RPMI (Gibco) supplemented as described for DMEM. Cells for injections were passaged 1-2 times after thawing, before use. WT and genetically modified mice were subcutaneously injected with 2×10^5 B16 or 5×10^5 CT26 cells in the shaved right flank. […] For blocking of chemokine and chemokine receptors, WT mice were intraperitoneally injected with 100 μg of hamster a-mCXCR3 (clone CXCR3-173, BioLegend), 100 μg of hamster α-mCCR5 (clone HM-CCR5, BioLegend), 50 μg of rat anti-mCXCL10 (clone 134013, R&D systems) and 20 μg of rat-α-mCXCR4 (clone 2B11/CXCR4, BD Biosciences) or with respective isotype antibodies (hamster IgG (clone HTK888, BioLegend, used as control for mCXCR3 and mCCR5 blockage); rat IgG2a (clone 54447, R&D systems, used as control for mCXCL10 blockade) and rat IgG2b (clone A95-1, BD Biosciences, used as control for mCXCR4 blockade). […] For CXCL10 neutralization, antibodies were injected on day 2, 5, 8 and 11 after tumor cell injection. For immunotherapy protocols, mice were intraperitoneally injected with 100 μg of mouse α-CTLA-4 (clone 9D9, Bioxcell), 200 μg of PD1 (clone RMP1-14, Bioxcell), a combination of 100 μg of α-CTLA-4+200 μg of a-PD1 or control isotypes (100 μg […] and 200 μg rat IgG2a (clone 2A3), both from Bioxcell) on day 3, 6 and 9 after tumor cell implantation. For adoptive cell transfer experiments, Pmel-1 Thy-1.1^+Thy-1.1^+, Cxcr3^-/- Thy-1.1^+Thy-1.2^+ Pmel-1 or OT1 splenocytes were activated ex-vivo, by incubation with 1 nM of human gp100 (for Pmel-1 cells) or […] (for OT1 cells) peptides for 1h at room temperature with agitation. Splenocytes were then washed and resuspended in R10 supplemented with 30U/mL of recombinant human IL-2. CD8^+ T cells were expanded for 6-7 days before used. […] For analysis of tumor growth, activated OT1 cells were injected intravenously (1×10^5 cells per mouse) into gender matched tumor-bearing mice, 3 days after tumor cell injection. Tumor height and width were measured with a caliper and tumor volume was calculated (Elliptical volume=width^2×height×0.523). […] Lungs with more than 100 metastatic nodules were defined as 100.

`N[C@@H](CC(=O)N1CCn2c(nnc2C(F)(F)F)C1)Cc1cc(F)c(F)cc1F` [sitagliptin] was tested, and the “recruitment of polymorphonuclear cells into the peritoneal cavity” value (CXCR3-expressing T cells; after intraperitoneal mCXCL10, control or sitagliptin-fed mice) was “did not show differential recruitment”, the “CXCR3 expression on peripheral blood T cells” value (CXCR3-expressing T cells; after intraperitoneal mCXCL10, sitagliptin vs control) was “unaltered CXCR3 expression” and the “mCXCL10-mediated infiltration of T cells into the peritoneal cavity” value (CXCR3-expressing T cells; intraperitoneal mCXCL10, sitagliptin vs control chow) was “enhanced mCXCL10-mediated infiltration of T cells”. For the same molecule, the “CXCR3 plasma membrane expression on migrating T cells” value (CXCR3-expressing T cells; peritoneal cavity after mCXCL10 injection, sitagliptin vs control) was “lower”, the “infiltration of lymphocytes, including T cell subsets and NK cells, into CT26 tumors” value (CT26 tumors) was “enhanced infiltration of lymphocytes” and the “number of tumor associated B cells, eosinophils and CD25hi regulatory T cells in CT26 tumors” value (CT26 tumors) was “did not change”. The “B16F10 tumor growth in Cxcl10-/- mice” value (B16F10 melanoma; Cxcl10-/- mice, sitagliptin vs control) was “the delayed tumor growth achieved by DPP4 inhibition was absent”, the “B16F10 tumor growth in Cxcr3-/- mice” value (B16F10 melanoma; Cxcr3-/- mice, sitagliptin vs control) was “abrogated the delayed tumor growth” and the “B16F10 tumor growth in Dpp4-/- mice” value (B16F10 melanoma; Dpp4-/- mice, sitagliptin vs control chow) was “did not influence the kinetics of melanoma growth”. The “B16F10 tumor growth in Rag2-/- mice” value (B16F10 melanoma; Rag2-/- mice, sitagliptin vs control) was “the beneficial effects of DPP4 inhibition were lost”, the B16F10 tumor growth (B16F10 melanoma; WT mice, sitagliptin vs control chow) was “reduced tumor growth” and the “B16F10 tumor growth with CXCR4 blocking in vivo” value (B16F10 melanoma; anti-mCXCR4 antibody, sitagliptin vs control) was “did not impact sitagliptin-mediated inhibition of tumor growth”. For the same molecule, the “B16F10 tumor growth in wild-type animals treated with CXCL10 blocking antibodies” value (B16F10 melanoma; loss of sitagliptin effect as in Cxcl10-/- mice) was “confirmed” and the “growth of established B16F10 tumors” value (B16F10 melanoma; sitagliptin chow started 3, 5 or 7 days after tumor implantation) was “delay in tumor growth if sitagliptin was administrated within 5 days after tumor cell implantation”.
